# Values quoted from earlier work, collected in US20130309220A1, “COMPOSITIONS FOR TREATING MICROBIAL INFECTIONS” (priority 2012, published 2013).
smiles,measurement,setting,value
"CCC(=O)O[C@]1(C(=O)SCF)[C@H](C)C[C@H]2[C@@H]3C[C@H](F)C4=CC(=O)C=C[C@]4(C)[C@@]3(F)[C@@H](O)C[C@@]21C [Fluticasone propionate, S-(fluromethyl)6α,9-difluoro-11β-17-dihydroxy-16α-methyl-3-oxoandrosta-1,4-diene-17β-carbothioate,17-propionate]",solubility in 95% ethanol,95% ethanol,slightly soluble
same,solubility in dimethyl sulfoxide,dimethyl sulfoxide,freely soluble
same,solubility in dimethylformamide,dimethylformamide,freely soluble
same,solubility in methanol,methanol,slightly soluble
same,solubility in water,water,practically insoluble
